Source: ChEMBL document CHEMBL5500383, “Recent advances and future directions on small molecule VEGFR inhibitors in oncological conditions” (Eur J Med Chem, 2024)

Assays:
PC-3 [1] = assay: Cytotoxicity against human PC-3 cells assessed as reduction in cell viability incubated for 72 hrs by MTT assay; assay type: functional, cell-based; settings: PC-3, 72 h
MDA-MB-435 = assay: Cytotoxicity against human MDA-MB-435 cells assessed as reduction in cell growth measured for 72 hrs by MTT assay; assay type: functional, cell-based; settings: MDA-MB-435, 72 h
DU-145 = assay: Cytotoxicity against human DU-145 cells assessed as reduction in cell viability incubated for 72 hrs by MTT assay; assay type: functional, cell-based; settings: DU-145, 72 h
MCF7 [2] = assay: Antiproliferative activity against human MCF7 cells assessed as reduction in cell growth by MTT assay; assay type: functional, cell-based
HCT-116 [3] = assay: Antiproliferative activity against human HCT-116 cells assessed as reduction in cell growth by MTT assay; assay type: functional, cell-based
[4] = target: T1, Vascular endothelial growth factor receptor 2 (Homo sapiens, UniProt P35968); assay: Inhibition of human VEGFR2 by discoverX kinome scan assay
HepG2 [5] = assay: Cytotoxicity against human HepG2 cells assessed as reduction in cell viability by SRB assay; assay type: functional, cell-based
HepG2 [6] = assay: Antiproliferative activity against human HepG2 cells assessed as reduction in cell growth by MTT assay; assay type: functional, cell-based
HCT-116 [7] = assay: Cytotoxicity against human HCT-116 cells assessed as reduction in cell viability by SRB assay; assay type: functional, cell-based
MCF7 [8] = assay: Cytotoxicity against human MCF7 cells assessed as reduction in cell viability by SRB assay; assay type: functional, cell-based
PC-9 = assay: Growth inhibition of human PC-9 cells; assay type: functional
HCC827 = assay: Growth inhibition of human HCC827 cells; assay type: functional
HCT-116 [9] = assay: Cytotoxicity against human HCT-116 cells assessed as reduction in cell viability; assay type: functional, cell-based
HepG2 [10] = assay: Cytotoxicity against human HepG2 cells assessed as reduction in cell viability; assay type: functional, cell-based
[11] = Cytotoxicity against African green monkey Vero cells assessed as reduction in cell viability incubated for 72 hrs by crystal violet staining based analysis; assay type: toxicity, Chlorocebus sabaeus
MCF7 [12] = assay: Cytotoxicity against human MCF7 cells assessed as reduction in cell growth incubated for 48 hrs by MTT assay; assay type: functional, cell-based; settings: MCF7, 48 h
PC-3 [13] = assay: Cytotoxicity against human PC-3 cells assessed as reduction in cell growth; assay type: toxicity, cell-based
PC-3 [14] = assay: Antiproliferative activity against human PC-3 cells assessed as reduction in cell growth; assay type: functional, cell-based
HOP-92 = assay: Growth inhibition of human HOP-92 cells incubated for 48 hrs by sulforhodamine B assay; assay type: functional
A549 = assay: Antiproliferative activity against human A549 cells; assay type: functional, cell-based
[15] = target: Serine/threonine-protein kinase B-raf (Homo sapiens, UniProt P15056); assay: Inhibition of wild type BRAF (unknown origin)
HepG2 [16] = assay: Antiproliferative activity against human HepG2 cells assessed as reduction in cell growth after 72 hrs by MTT assay; assay type: functional, cell-based; settings: HepG2, 72 h
[17] = Inhibition of VEGFR (unknown origin); design: species or system Homo sapiens
[18] = target: Serine/threonine-protein kinase B-raf (Homo sapiens, UniProt P15056, V600E); assay: Inhibition of BRAF V600E mutant (unknown origin)
PC-3 [19] = assay: Antiproliferative activity against human PC-3 cells; assay type: functional, cell-based
A-375 = assay: Antiproliferative activity against human A-375 cells assessed as reduction in cell viability measured after 72 hrs by MTT assay; assay type: functional, cell-based; settings: A-375, 72 h
MIA PaCa-2 = assay: Antiproliferative activity against human MIA PaCa-2 cells assessed as inhibition of cell growth incubated for 48 hrs by MTS assay; assay type: functional, cell-based; settings: MIA PaCa-2, 48 h
MCF7 [20] = assay: Antiproliferative activity against human MCF7 cells assessed as reduction in cell viability measured after 72 hrs by MTT assay; assay type: functional, cell-based; settings: MCF7, 72 h
HCT-116 [21] = assay: Antiproliferative activity against human HCT-116 cells assessed as reduction in cell viability measured after 72 hrs by MTT assay; assay type: functional, cell-based; settings: HCT-116, 72 h
[22] = target: RAF proto-oncogene serine/threonine-protein kinase (Homo sapiens, UniProt P04049); assay: Inhibition of C-RAF (unknown origin)
[23] = target: T1, Vascular endothelial growth factor receptor 2; assay: Inhibition of VEGFR2 (unknown origin)
Caco-2 [24] = assay: Antiproliferative activity against human Caco-2 cells; assay type: functional, cell-based
MCF7 [25] = assay: Antiproliferative activity against human MCF7 cells; assay type: functional, cell-based
[26] = target: Epidermal growth factor receptor (Homo sapiens, UniProt P00533); assay: Inhibition of EGFR (unknown origin)
HepG2 [27] = assay: Antiproliferative activity against human HepG2 cells; assay type: functional, cell-based
HCT-116 [28] = assay: Antiproliferative activity against human HCT-116 cells; assay type: functional, cell-based
MDA-MB-231 = assay: Antiproliferative activity against human MDA-MB-231 cells; assay type: functional, cell-based
[29] = target: Serine/threonine-protein kinase pim-1 (Homo sapiens, UniProt P11309); assay: Inhibition of PIM-1 (unknown origin)
Caco-2 [30] = assay: Antiproliferative activity against human Caco-2 cells assessed as reduction in cell growth; assay type: functional, cell-based
PC-3 [31] = assay: Antiproliferative activity against human PC-3 cells assessed as cell growth inhibition incubated for 24 hrs by MTT assay; assay type: functional, cell-based; settings: PC-3, 24 h
HepG2 [32] = assay: Antiproliferative activity against human HepG2 cells assessed as reduction in cell growth; assay type: functional, cell-based
HepG2 [33] = assay: Antiproliferative activity against human HepG2 cells assessed as cell growth inhibition incubated for 24 hrs by MTT assay; assay type: functional, cell-based; settings: HepG2, 24 h
PC-3 [34] = assay: Antiproliferative activity against human PC-3 cells assessed as inhibition of cell growth; assay type: functional, cell-based
MCF7 [35] = assay: Antiproliferative activity against human MCF7 cells assessed as inhibition of cell growth; assay type: functional, cell-based
[36] = target: T1, Vascular endothelial growth factor receptor 2; assay: Inhibition of VEGFR2 (unknown origin) incubated for 1 hr in presence of ATP by ELISA method
SF-539 = assay: Antiproliferative activity against human SF-539 cells assessed as inhibition of cell growth at 10 uM after 48 hrs by sulforhodamine B assay relative to control; assay type: functional; design: scale not given: the % may be the effect or the level left

T1 sequence (P35968 whole entry): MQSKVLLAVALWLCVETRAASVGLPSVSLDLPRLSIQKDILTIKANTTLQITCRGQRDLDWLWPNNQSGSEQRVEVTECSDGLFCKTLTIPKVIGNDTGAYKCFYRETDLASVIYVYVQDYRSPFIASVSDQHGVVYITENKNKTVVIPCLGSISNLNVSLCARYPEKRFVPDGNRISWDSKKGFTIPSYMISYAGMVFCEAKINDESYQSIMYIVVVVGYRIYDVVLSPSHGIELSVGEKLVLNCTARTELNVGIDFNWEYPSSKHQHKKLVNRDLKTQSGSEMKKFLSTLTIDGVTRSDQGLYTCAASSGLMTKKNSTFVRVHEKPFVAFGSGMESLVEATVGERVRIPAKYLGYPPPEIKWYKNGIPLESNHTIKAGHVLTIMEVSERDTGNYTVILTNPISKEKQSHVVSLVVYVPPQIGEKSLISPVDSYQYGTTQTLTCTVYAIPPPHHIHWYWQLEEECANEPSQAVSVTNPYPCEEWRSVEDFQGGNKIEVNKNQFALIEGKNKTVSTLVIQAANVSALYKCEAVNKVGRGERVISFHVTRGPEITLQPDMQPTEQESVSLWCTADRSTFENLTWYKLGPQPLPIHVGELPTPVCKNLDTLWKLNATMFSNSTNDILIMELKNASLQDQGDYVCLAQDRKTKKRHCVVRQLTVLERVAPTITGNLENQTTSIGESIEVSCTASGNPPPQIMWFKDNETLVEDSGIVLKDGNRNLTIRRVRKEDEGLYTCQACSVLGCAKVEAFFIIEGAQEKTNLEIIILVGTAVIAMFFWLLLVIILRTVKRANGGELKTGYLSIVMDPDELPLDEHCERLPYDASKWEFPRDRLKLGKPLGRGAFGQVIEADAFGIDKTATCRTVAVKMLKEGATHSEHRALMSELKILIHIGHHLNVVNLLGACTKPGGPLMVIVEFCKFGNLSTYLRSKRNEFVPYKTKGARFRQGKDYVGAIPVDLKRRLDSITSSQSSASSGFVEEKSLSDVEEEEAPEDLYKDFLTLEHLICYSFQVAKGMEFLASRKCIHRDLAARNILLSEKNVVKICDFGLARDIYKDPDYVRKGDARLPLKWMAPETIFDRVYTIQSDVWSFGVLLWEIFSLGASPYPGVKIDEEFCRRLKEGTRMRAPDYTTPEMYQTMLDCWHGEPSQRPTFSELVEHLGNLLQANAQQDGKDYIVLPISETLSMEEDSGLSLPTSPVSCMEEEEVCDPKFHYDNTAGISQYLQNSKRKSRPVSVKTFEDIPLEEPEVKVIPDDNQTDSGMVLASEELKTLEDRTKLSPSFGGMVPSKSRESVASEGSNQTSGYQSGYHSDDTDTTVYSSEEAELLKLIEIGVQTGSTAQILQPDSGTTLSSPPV
Serine/threonine-protein kinase pim-1, sequence (P11309 whole entry): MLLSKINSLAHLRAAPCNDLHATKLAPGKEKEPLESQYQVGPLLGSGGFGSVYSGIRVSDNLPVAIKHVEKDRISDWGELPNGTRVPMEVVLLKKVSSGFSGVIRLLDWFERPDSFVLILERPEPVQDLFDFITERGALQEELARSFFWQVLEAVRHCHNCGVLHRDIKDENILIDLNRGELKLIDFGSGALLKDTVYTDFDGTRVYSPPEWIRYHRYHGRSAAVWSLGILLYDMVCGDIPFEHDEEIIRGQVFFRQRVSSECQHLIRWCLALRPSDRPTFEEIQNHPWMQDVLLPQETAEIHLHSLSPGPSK
RAF proto-oncogene serine/threonine-protein kinase, sequence (P04049 whole entry): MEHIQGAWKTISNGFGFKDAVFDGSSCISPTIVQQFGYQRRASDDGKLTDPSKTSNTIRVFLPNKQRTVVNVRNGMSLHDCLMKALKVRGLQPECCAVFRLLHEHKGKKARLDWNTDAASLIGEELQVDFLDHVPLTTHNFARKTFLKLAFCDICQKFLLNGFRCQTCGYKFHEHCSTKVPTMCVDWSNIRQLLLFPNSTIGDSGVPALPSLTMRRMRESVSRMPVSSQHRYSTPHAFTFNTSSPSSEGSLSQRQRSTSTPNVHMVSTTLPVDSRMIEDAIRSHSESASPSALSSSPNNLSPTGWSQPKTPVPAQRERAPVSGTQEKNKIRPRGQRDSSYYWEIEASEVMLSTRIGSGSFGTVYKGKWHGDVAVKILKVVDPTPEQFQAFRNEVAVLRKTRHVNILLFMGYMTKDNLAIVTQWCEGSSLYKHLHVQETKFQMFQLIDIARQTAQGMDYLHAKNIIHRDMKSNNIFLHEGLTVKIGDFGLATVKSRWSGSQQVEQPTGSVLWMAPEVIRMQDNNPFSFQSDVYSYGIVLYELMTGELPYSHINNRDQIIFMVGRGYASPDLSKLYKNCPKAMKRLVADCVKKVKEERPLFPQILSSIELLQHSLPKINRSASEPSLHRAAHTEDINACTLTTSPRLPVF
Epidermal growth factor receptor, sequence (P00533 whole entry): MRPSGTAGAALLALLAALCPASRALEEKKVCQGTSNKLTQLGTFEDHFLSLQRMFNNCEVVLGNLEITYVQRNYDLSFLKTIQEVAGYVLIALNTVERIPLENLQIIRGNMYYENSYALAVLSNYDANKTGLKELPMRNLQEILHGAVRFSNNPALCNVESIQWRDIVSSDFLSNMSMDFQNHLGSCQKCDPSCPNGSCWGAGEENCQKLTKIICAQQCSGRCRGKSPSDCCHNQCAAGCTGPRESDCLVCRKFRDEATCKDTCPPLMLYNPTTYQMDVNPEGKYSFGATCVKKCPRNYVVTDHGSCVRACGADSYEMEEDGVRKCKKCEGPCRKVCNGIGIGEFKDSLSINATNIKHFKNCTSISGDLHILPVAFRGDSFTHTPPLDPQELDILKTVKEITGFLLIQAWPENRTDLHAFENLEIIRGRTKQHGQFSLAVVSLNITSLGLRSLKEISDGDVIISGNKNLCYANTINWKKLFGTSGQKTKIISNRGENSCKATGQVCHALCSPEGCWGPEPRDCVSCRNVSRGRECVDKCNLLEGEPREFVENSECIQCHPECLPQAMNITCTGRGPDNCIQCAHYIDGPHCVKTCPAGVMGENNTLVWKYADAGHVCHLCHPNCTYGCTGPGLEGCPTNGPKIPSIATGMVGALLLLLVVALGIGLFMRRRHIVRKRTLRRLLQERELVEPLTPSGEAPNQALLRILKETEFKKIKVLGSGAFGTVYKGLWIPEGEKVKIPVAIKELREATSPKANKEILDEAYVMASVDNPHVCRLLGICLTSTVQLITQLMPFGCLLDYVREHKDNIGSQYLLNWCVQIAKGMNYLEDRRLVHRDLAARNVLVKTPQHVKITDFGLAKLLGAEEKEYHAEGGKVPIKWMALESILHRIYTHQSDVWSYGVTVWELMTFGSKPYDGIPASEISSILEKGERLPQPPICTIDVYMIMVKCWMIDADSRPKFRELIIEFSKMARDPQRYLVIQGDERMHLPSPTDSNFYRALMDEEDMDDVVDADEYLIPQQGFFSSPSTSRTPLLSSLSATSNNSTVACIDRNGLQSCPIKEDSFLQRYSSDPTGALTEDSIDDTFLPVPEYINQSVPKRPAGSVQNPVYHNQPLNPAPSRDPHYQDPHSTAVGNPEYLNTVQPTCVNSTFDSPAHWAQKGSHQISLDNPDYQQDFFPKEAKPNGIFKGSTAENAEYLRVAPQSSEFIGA
Serine/threonine-protein kinase B-raf (Homo sapiens, UniProt P15056), sequence (P15056 whole entry): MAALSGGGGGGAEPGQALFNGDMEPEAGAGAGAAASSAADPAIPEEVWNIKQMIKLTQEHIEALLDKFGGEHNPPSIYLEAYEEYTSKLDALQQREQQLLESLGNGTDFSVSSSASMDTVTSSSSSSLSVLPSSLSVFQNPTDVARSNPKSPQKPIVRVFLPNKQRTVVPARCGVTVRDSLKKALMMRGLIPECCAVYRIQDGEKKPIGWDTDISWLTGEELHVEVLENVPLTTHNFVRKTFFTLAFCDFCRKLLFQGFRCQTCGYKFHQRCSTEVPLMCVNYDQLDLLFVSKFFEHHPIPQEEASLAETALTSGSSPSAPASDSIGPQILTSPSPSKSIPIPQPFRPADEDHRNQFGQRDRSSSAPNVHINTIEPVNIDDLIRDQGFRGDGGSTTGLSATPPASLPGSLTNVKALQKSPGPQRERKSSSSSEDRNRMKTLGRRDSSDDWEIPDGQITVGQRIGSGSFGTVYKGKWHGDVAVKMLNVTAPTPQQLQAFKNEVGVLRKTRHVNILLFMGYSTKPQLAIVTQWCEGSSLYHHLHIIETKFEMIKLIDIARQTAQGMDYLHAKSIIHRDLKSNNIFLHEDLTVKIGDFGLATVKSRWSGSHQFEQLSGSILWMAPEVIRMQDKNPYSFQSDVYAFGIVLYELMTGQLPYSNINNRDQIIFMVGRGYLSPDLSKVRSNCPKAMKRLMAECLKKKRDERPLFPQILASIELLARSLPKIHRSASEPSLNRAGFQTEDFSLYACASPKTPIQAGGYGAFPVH
Serine/threonine-protein kinase B-raf (Homo sapiens, UniProt P15056, V600E), sequence (P15056 2-766 V600E limits assumed): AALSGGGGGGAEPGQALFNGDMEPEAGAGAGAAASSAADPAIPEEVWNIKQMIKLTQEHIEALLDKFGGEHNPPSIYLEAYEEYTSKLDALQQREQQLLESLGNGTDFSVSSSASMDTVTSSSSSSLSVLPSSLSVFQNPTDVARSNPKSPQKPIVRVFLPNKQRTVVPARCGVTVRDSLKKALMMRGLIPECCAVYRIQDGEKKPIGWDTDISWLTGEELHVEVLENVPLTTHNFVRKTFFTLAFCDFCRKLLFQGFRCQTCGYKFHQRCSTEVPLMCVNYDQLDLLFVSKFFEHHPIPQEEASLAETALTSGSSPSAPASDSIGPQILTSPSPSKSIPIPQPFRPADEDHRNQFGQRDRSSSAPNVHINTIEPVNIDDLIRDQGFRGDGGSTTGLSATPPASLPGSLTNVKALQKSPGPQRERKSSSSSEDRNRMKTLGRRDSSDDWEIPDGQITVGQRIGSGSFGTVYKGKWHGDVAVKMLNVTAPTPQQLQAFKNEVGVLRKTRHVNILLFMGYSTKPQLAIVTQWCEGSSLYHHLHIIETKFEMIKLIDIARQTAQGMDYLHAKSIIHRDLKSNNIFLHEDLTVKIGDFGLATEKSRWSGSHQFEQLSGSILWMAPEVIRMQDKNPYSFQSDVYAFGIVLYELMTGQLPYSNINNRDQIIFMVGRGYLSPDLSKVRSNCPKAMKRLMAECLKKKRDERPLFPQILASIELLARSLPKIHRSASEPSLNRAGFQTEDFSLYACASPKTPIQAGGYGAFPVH

For COc1cc(-c2cc(-c3ccc4ccccc4c3)nc(NN)c2C#N)ccc1O, the IC50 (PC-3 [1]) was 55 nM, the IC50 (MDA-MB-435) was 96 nM and the IC50 (DU-145) was 8.5 nM.

Work on O=C(N/N=C/c1ccc(Cl)cc1)c1ccc(Nc2ncnc3sc4c(c23)CCCC4)cc1 yielded an IC50 (MCF7 [2]) of 10300 nM, an IC50 (HCT-116 [3]) of 2800 nM and an IC50 [4] of 230 nM. The IC50 (HepG2 [5]) was 4100 nM, the IC50 (HepG2 [6]) was 4100 nM and the IC50 (HCT-116 [7]) was 2800 nM. The IC50 (MCF7 [8]) was 10300 nM.

With NC(=O)CCn1cc(-c2ccc3ncnc(Nc4cc(O)c(F)cc4F)c3c2)nn1 the GI50 (PC-9) was 6000 nM and the GI50 (HCC827) was 1300 nM.

In the case of Cc1nc2ccccc2n(CC(=O)Nc2ccc(C(=O)NCc3ccccc3)cc2)c1=O, the IC50 (HCT-116 [9]) is reported as 2200 nM, the IC50 (HepG2 [10]) is reported as 5300 nM and the IC50 at 72 h [11] is reported as 11800 nM.

CC1=NN(c2ccc([N+](=O)[O-])cc2[N+](=O)[O-])C(=O)/C1=C\c1cn(-c2ccccc2)nc1-c1cccc([N+](=O)[O-])c1 gave an IC50 (MCF7 [12]) of 16500 nM.

N#CCc1nnc(NC(=O)c2ccco2)s1 showed an IC50 (PC-3 [13]) of 68.7 nM and an IC50 (PC-3 [14]) of 9.1 nM.

Cc1ccc(S(=O)(=O)Nc2ccc(-c3cc(-c4cccc(F)c4)c(C#N)c(N)n3)cc2)cc1 gave a GI50 (HOP-92) of 1060 nM.

Compound O=C(CSc1nc2ccccc2c(=O)n1-c1ccc(Cl)cc1)Nc1ccc(-c2nc3ccccc3[nH]2)cc1 has an IC50 (A549) of 100 nM, an IC50 [15] of 20 nM and an IC50 (HepG2 [16]) of 100 nM. The IC50 [17] was > 100000 nM, the IC50 [18] was 2 nM and the IC50 (PC-3 [19]) was 100 nM. For the same compound, the IC50 (A-375) was 100 nM, the IC50 (MIA PaCa-2) was 100 nM and the IC50 (MCF7 [20]) was 100 nM. It also gave an IC50 (HCT-116 [21]) of 100 nM and an IC50 [22] of 100 nM.

In the case of COc1ccc(-c2cc(-c3ccc(C)cc3)nc(NN)n2)cc1, the IC50 [23] is reported as 98 nM, the IC50 (Caco-2 [24]) is reported as 12800 nM and the IC50 (MCF7 [25]) is reported as 7800 nM. For the same compound, the IC50 [26] was 71 nM, the IC50 (HepG2 [27]) was 18300 nM and the IC50 (HCT-116 [28]) was 31000 nM. The IC50 (MDA-MB-231) was 23700 nM.

Work on COc1ccc(-c2cc(-c3ccc(OC)c(OC)c3)c3c(N)c(C(=O)c4ccc(C)cc4)sc3n2)cc1OC yielded an IC50 [29] of 7950 nM, an IC50 [23] of 5870 nM and an IC50 (Caco-2 [30]) of 20 nM. For the same compound, the IC50 (PC-3 [31]) was 19 nM, the IC50 (HepG2 [32]) was 6 nM and the IC50 (HepG2 [33]) was 6 nM. The IC50 (PC-3 [34]) was 10 nM and the IC50 (MCF7 [35]) was 10 nM.

Compound CNC(=O)c1nc(Nc2ccc(NC(=O)Nc3cccc(OC)c3)cc2)c2ccccc2n1 has an IC50 [36] of 40300 nM and an Activity (SF-539) of 47.8%.
